“Also recorded” adds a separate entry of the source. Ends that are not written are not given here. Peptide text beside a SMILES is read from it.

Data set [1] relates to human epidermal melanocyte (HEM). Description: Cell viability, MTT assay, HEMs. The following applies: FIG. 6b. It counts as cell-based. As for the experimental part:
(§1) Cell viability was measured by using a 3-(4,5-dimethylthiazol-2-yl)-2,5-diphenyltetrazolium bromide (MTT) assay. B16-F10 cell lines were treated with test peptides at various concentrations for 72 hours. The cells were washed with PBS and cultured in 100 μl of culture fluid, to which 1 mg/mL of MTT (Amresco, Solon, Ohio, USA) was added, for three hours. After that, the culture fluid was removed therefrom and formazan accumulated inside the cells was extracted with 100 μl of dimethyl sulfoxide (DMSO). Absorbance of the extracted solution was measured at 595 nm by using SPECTROstar Nano microplate reader (BMG LABTECH GmbH, Ortenberg, Germany).
(§2) After the B16-F10 cells and HEM were treated with the peptides of Examples 1 to 4 according to the same method, cell viability was measured and the results thereof were summarized in FIGS. 1b, 2b, 3b, 4b, 5b, 6b and 7a respectively.
(Tetrazolium assays rely on reduction of a dye to a coloured formazan, in cell work by metabolically active cells.)

Data set [2] has the same test system. Description: Melanogenesis inhibitory activity (intracellular and extracellular melanin) in HEMs stimulated with α-MSH. It counts as cell-based. The following applies: FIG. 6a. As for the experimental part:
(§3) Cells were cultured in a humidified incubator at 37° C. and 5% CO2. Murine melanoma B16-F10 cell lines were cultured in Dulbecco' Modified Eagle Medium containing 10% fetal bovine serum and antibiotics (100 U/mL of penicillin, 0.1 mg/mL of streptomycin and 0.25 μg/mL of amphotericin B), which were purchased from the American Type Culture Collection (Manassas, Va., USA). A human epidermal melanocyte (HEM), derived from a pigmented human neonatal foreskin, was purchased from Cascade Biologics (Portland, Oreg., USA) and cultured in medium 254 containing human melanocyte growth supplements (Cascade Biologics) and antibiotics.
A melanin formation inhibitory effect of the peptide to be analyzed was confirmed by using B16-F10 cell lines and HEM. The B16-F10 cells were treated with test peptides at various concentrations and stimulated for 72 hours by using 100 nM of α-MSH. Hexapeptide B6 (Phe-Ser-His-His-Leu-Gly-NH2) (SEQ ID NO: 20), p-coumaric acid and arbutin were used as a control group. A level of extracellular melanin was measured by using a conditioned medium in which cells were previously cultured. Intracellular melanin was extracted at 60° C. for 60 minutes by using 1.0 M NaOH. A content of melanin was spectroscopically measured by measuring absorbance at 475 nm and resultant values were normalized with regard to a total protein content of cells by using Bio-Rad DC assay. […]

In data set [3] the test system is B16-F10 cells. Nature of the data set: Melanogenesis inhibitory activity (melanin content) in B16-F10 cells stimulated with α-MSH. The format is cell-based, murine. The following applies: for melanogenesis inhibitory effect of glycine derivatives (melanin content): various concentrations, FIG. 5a; for melanogenesis inhibitory effect of short peptides (melanin content): peptide 30 μM to 100 μM, FIG. 4a. The method, then:
as §3
A melanin formation inhibitory effect of the peptide to be analyzed was confirmed by using B16-F10 cell lines and HEM. The B16-F10 cells were treated with test peptides at various concentrations and stimulated for 72 hours by using 100 nM of α-MSH. Hexapeptide B6 (Phe-Ser-His-His-Leu-Gly-NH2) (SEQ ID NO: 20), p-coumaric acid and arbutin were used as a control group. A level of extracellular melanin was measured by using a conditioned medium in which cells were previously cultured. Intracellular melanin was extracted at 60° C. for 60 minutes by using 1.0 M NaOH. A content of melanin was spectroscopically measured by measuring absorbance at 475 nm and resultant values were normalized with regard to a total protein content of cells by using Bio-Rad DC assay.

Data set [4] concerns tyrosinase (TYR). Description: TYR activity assay in cell-free extract of treated B16-F10 cells. The following applies: treated 60 minutes, then 100 nM α-MSH 24 hours, FIG. 8a. The format is cell-based, murine. As for the experimental part: B16-F10 cells were treated with glycinamide-HCl for 60 minutes and stimulated for 24 hours by using 100 nM of α-MSH. The cells were dissolved in 10 mM of cold Tris-HCl buffer solution (pH 7.4) containing 120 mM of sodium chloride, 25 mM of potassium chloride, 2.0 mM of ethylene glycol tetraacetic acid, 1.0 mM of ethylenediaminetetraacetic acid, 0.5% triton X-100, protease inhibitor cocktail (Roche, Mannheim, Germany). Cytolysate was centrifuged at 13,000×g at 4° C. for 15 minutes to obtain a cell-free extract therefrom. TYR activity was measured by using L-tyrosine and L-3,4-dihydroxyphenylalanine. A reaction mixture (200 μL) includes 100 mM of sodium phosphate (pH 6.8), 1.0 mM of L-tyrosine, 42 μM of L-3,4-dihydroxy phenylalanine and a cell-free extract (40 μg of protein), which was cultured at 37° C. A change in absorbance was measured at 475 nm by using Spectrostar Nano microplate reader.

Data set [5] relates to cAMP-responsive element binding protein (CREB). Nature of the data set: Western blotting, phosphorylation of CREB in B16-F10 cells. The following applies: stimulated with α-MSH, FIG. 9a. The format is cell-based, murine. As for the experimental part:
(§4) Western blotting was performed as described in a document [Study on phenolic compounds and novel peptides inhibiting UVB- and PM10-induced MMP1 expression and melanogenesis in skin cells. PhD Thesis 2017. Kyungpook National University, Korea]. B16-F10 cells were dissolved in 10 mM of cold Tris-HCl buffer solution (pH 7.2) containing 150 mM of NaCl, 5 mM of EDTA, 0.1% sodium dodecyl sulfate (SDS), 1% triton X-100, 1% deoxycholate, 1 mM of phenylmethylsulphonyl fluoride and protease inhibitor cocktail (Roche). A part of cytolysate (30 μg of protein) was mixed with Laemmli sample buffer, then heated at 95° C. for five minutes to be denaturalized, and then was subject to electrophoresis in 10% SDS-polyacrylamide gel. After the electrophoresis, protein was transferred from gel to polyvinylidene difluoride membrane (Amersham Pharmacia, Little Chalfont, UK). Primary antibodies for TYR, TYRP1, DCT, MITF and @-actin were purchased from Santa Cruz Biotechnology (Santa Cruz, Calif., USA). Primary antibodies for CREB, phospho-CREB (Ser133), extracellular signal-regulated kinase (ERK) and phospho-ERK (Thr202/Tyr204) were purchased from Cell Signaling (located in Danvers, Mass., USA). […] A protein band was visualized by using picoEPD Western Reagent kit (Elpis-Biotech, Daejeon, South Korea), and a depth of image was analyzed by using National Institutes of Health ImageJ program. […]
In general terms: Immunoblotting shows a protein as a band on a membrane.

Data set [6] deals with tyrosinase-related protein 1 (TYRP1). Nature of the data set: Western blotting, TYRP1 protein level in B16-F10 cells. It counts as cell-based, murine. The following applies: both in the presence and in the absence of α-MSH, FIG. 8b. The method, then:
(§5) Western blotting was performed as described in a document [Study on phenolic compounds and novel peptides inhibiting UVB- and PM10-induced MMP1 expression and melanogenesis in skin cells. PhD Thesis 2017. Kyungpook National University, Korea]. B16-F10 cells were dissolved in 10 mM of cold Tris-HCl buffer solution (pH 7.2) containing 150 mM of NaCl, 5 mM of EDTA, 0.1% sodium dodecyl sulfate (SDS), 1% triton X-100, 1% deoxycholate, 1 mM of phenylmethylsulphonyl fluoride and protease inhibitor cocktail (Roche). A part of cytolysate (30 μg of protein) was mixed with Laemmli sample buffer, then heated at 95° C. for five minutes to be denaturalized, and then was subject to electrophoresis in 10% SDS-polyacrylamide gel. After the electrophoresis, protein was transferred from gel to polyvinylidene difluoride membrane (Amersham Pharmacia, Little Chalfont, UK). Primary antibodies for TYR, TYRP1, DCT, MITF and @-actin were purchased from Santa Cruz Biotechnology (Santa Cruz, Calif., USA). Primary antibodies for CREB, phospho-CREB (Ser133), extracellular signal-regulated kinase (ERK) and phospho-ERK (Thr202/Tyr204) were purchased from Cell Signaling (located in Danvers, Mass., USA). […] A protein band was visualized by using picoEPD Western Reagent kit (Elpis-Biotech, Daejeon, South Korea), and a depth of image was analyzed by using National Institutes of Health ImageJ program.

For data set [7], the system named is dopachrometautomerase (DCT). Description: Western blotting, DCT protein level in B16-F10 cells. The format is cell-based, murine. The following applies: both in the presence and in the absence of α-MSH, FIG. 8b. As for the experimental part: as §5
Data set [8] concerns microphthalmia-associated transcription factor (MITF). Nature of the data set: Western blotting, MITF protein level in B16-F10 cells. The following applies: stimulated with α-MSH, FIG. 9b. It counts as cell-based, murine. As for the experimental part:
as §4

Data set [9] deals with B16-F10 cells. Description: Cell viability, MTT assay, B16-F10 cells. It counts as cell-based, murine. The following applies: up to 300 μM, FIG. 7a. As for the experimental part:
as §1, §2

Data set [10] relates to extracellular signal-regulated kinase (ERK). Nature of the data set: Western blotting, phosphorylation of ERK in B16-F10 cells. The following applies: stimulated with α-MSH, FIG. 9a. It counts as cell-based, murine. The method, then:
as §4

The test system of data set [11] is tyrosinase (TYR). Nature of the data set: Western blotting, TYR protein level in B16-F10 cells. The format is cell-based, murine. The following applies: both in the presence and in the absence of α-MSH, FIG. 8b. The method, then:
as §5

With `N=C(N)NCCC[C@H](N)C(=O)N[C@@H](Cc1ccccc1)C(=O)N[C@@H](Cc1c[nH]c2ccccc12)C(=O)NCC(N)=O` [D3, Arg-Phe-Trp-Gly-NH2] (H-RFWG-NH2), the “HEMs cell viability / cytotoxicity” value in [1] was “almost no cytotoxicity”.
Same read-out and setting: under `CC(C)C[C@H](NC(=O)[C@@H](N)CCCNC(=N)N)C(=O)N[C@@H](Cc1c[nH]c2ccccc12)C(=O)NCC(N)=O` [D5, Arg-Leu-Trp-Gly-NH2] (H-RLWG-NH2) stands “almost no cytotoxicity”.
Still for that read-out and setting: under `NC(=O)CNC(=O)[C@@H](N)Cc1c[nH]c2ccccc12` [F1, Trp-Gly-NH2] (H-Trp-Gly-NH2) stands “almost no cytotoxicity”.
As to `NCC(N)=O` [G1, glycinamide], the “increase in content of intracellular and extracellular melanins in HEMs” value in data set [2] is “weakened”. The “HEMs cell viability / cytotoxicity” value in data set [1] is reported as “almost no cytotoxicity”. Also, the “melanogenesis inhibitory effect of glycine derivatives (melanin content)” value in the data set with B16-F10 cells [3] (100 nM α-MSH, 72 hours) is reported as “maintains anti-melanogenesis activity”.
Turning to `NCC(=O)O` [free glycine, glycine, reference compound], the “melanogenesis inhibitory effect of glycine derivatives (melanin content)” value in the data set with B16-F10 cells [3] (100 nM α-MSH, 72 hours) is recorded as “no activity”.
For `Cl.NCC(N)=O` [glycinamide-HCl], in the data set with tyrosinase (TYR) [4], the “TYR activity increased by α-MSH” value was “significantly weakened”. The “phosphorylation of CREB” value in [5] was “inhibited”. In addition, the “protein level of TYRP1” value in data set [6] is listed as “significantly reduced”. The “protein level of DCT” value in [7] was “significantly reduced”. The “level of MITF expression increased by α-MSH” value in [8] is on record as “weakened”. The “cytotoxicity in B16-F10 cells” value with B16-F10 cells [9] is “did not cause any cytotoxicity”. The “phosphorylation of ERK” value in data set [10] is “did not affect”. In the data set with tyrosinase (TYR) [11], the “protein level of TYR” value is given as “significantly reduced”. Also, the “level of intracellular and extracellular melanins” value in the data set with B16-F10 cells [3] (25-100 μM, cells stimulated with α-MSH, FIG. 7b) is “reduced”.
In the case of Arg-Trp-Gly-NH2 [E7], in the data set with B16-F10 cells [3] (100 nM α-MSH, 72 hours), the “melanogenesis inhibitory effect of short peptides (melanin content)” value is “melanogenesis inhibitory activity higher than that of other tripeptides”.
Still for that read-out and setting: under Leu-Trp-Gly-NH2 [E6] stands “melanogenesis inhibitory activity higher than that of other tripeptides”.
Consider Phe-Arg-Trp-Gly (FRWG-NH2) [D9], for which the “melanogenesis inhibitory activity compared with p-coumaric acid and arbutin” value with B16-F10 cells [3] (peptide 10-30 μM, 100 nM α-MSH, 72 hours, molar comparison, FIG. 3a) is “melanogenesis inhibitory activity at a concentration lower than that of p-coumaric acid and arbutin; also recorded: the most powerful melanogenesis inhibitory effect”.
Turning to “Phe-Ser-His-His-Leu-Gly-NH2 (FSHHLG-NH2) [Hexa-peptide B6, reference compound]”, the “melanogenesis inhibitory effect of individual tetrapeptides (melanin content)” value with B16-F10 cells [3] (peptide 30 μM and 100 μM, 100 nM α-MSH, 72 hours, FIG. 2a) is given as “showed a melanogenesis inhibitory effect at 100 μM only”.
As for Phe-Trp-Gly-NH2 [E5], in [2], the “increase in content of intracellular and extracellular melanins in HEMs” value is given as “weakened”. Also, the “melanogenesis inhibitory effect of short peptides (melanin content)” value with B16-F10 cells [3] (100 nM α-MSH, 72 hours) is recorded as “melanogenesis inhibitory activity higher than that of other tripeptides”.

The record behind these values is US20230190857A1, “PEPTIDE WITH AMIDATED CARBOXY TERMINUS HAVING MELANOGENESIS INHIBITORY ACTIVITY AND COMPOSITION COMPRISING SAME” (RUBY CROWN CO. LTD., priority 2018, published 2023).
